Test results published in ChEMBL document CHEMBL3885881, “DrugMatrix”.

Species: Rattus norvegicus
Assay: DrugMatrix - Regimen: Daily Repeat
Format: toxicity, organism-based, Sprague-Dawley
Design: regimen Daily Repeat, gender Male, age 6-8 weeks
Conditions: in vivo, po, route oral GAVAGE, vehicle .5 % CMC; for ABSOLUTE BASOPHIL / ABSOLUTE EOSINOPHIL / ABSOLUTE LYMPHOCYTE / ABSOLUTE MONOCYTE / ABSOLUTE SEGMENTED NEUTROPHIL / BASOPHIL / EOSINOPHIL / ERYTHROCYTE COUNT / HEMATOCRIT / HEMOGLOBIN / LEUKOCYTE COUNT / LYMPHOCYTE / MEAN CORPUSCULAR HEMOGLOBIN / MEAN CORPUSCULAR HEMOGLOBIN CONCENTRATION / MEAN CORPUSCULAR VOLUME / MONOCYTE / NEUTROPHIL / NUCLEATED RED BLOOD CELLS / PLATELET COUNT: tissue Blood; for ALANINE AMINOTRANSFERASE / ALBUMIN / ALKALINE PHOSPHATASE / ASPARTATE AMINOTRANSFERASE / BLOOD UREA NITROGEN / CARBON DIOXIDE / CHLORIDE / CHOLESTEROL / CREATINE PHOSPHOKINASE / CREATININE / GLUCOSE / LACTATE DEHYDROGENASE / LIPASE / PHOSPHORUS / POTASSIUM / SODIUM / TOTAL BILIRUBIN / TOTAL PROTEIN / URIC ACID: tissue Plasma
[1] = 0 mg/kg, 72 h, dose level Control, time 3 day
[2] = 0 mg/kg, 120 h, dose level Control, time 5 day
[3] = 50 mg/kg, 72 h, dose level Low, time 3 day

## CC1(C)[C@H]2CC[C@]1(C)C(=O)C2 [(-)-CAMPHOR]
[1]
  ABSOLUTE BASOPHIL: 0 CELLS/uL
  ABSOLUTE EOSINOPHIL: 222.83 CELLS/uL
  ABSOLUTE LYMPHOCYTE: 14453 CELLS/uL
  ABSOLUTE MONOCYTE: 0 CELLS/uL
  ABSOLUTE SEGMENTED NEUTROPHIL: 1490.83 CELLS/uL
  BASOPHIL: 0%
  EOSINOPHIL: 1.33%
  ERYTHROCYTE COUNT: 5.76 x10E6/uL
  HEMATOCRIT: 36.52%
  HEMOGLOBIN: 13.45 G/DL
  LEUKOCYTE COUNT: 16.17 x10E3/uL
  LYMPHOCYTE: 89.33%
  MEAN CORPUSCULAR HEMOGLOBIN: 23.37 pg
  MEAN CORPUSCULAR HEMOGLOBIN CONCENTRATION: 36.85 G/DL
  MEAN CORPUSCULAR VOLUME: 63.47 fL
  MONOCYTE: 0%
  NEUTROPHIL: 9.33%
  NUCLEATED RED BLOOD CELLS: 0 /100WBC
  PLATELET COUNT: 1239.5 x10E3/uL
  ALANINE AMINOTRANSFERASE: 43.83 u/L
  ALBUMIN: 4.27 G/DL
  ALKALINE PHOSPHATASE: 398.83 u/L
  ASPARTATE AMINOTRANSFERASE: 81.17 u/L
  BLOOD UREA NITROGEN: 17.67 mg/dL
  CARBON DIOXIDE: 27.5 mmol/L
  CHLORIDE: 99.17 MEQ/L
  CHOLESTEROL: 74 mg/dL
  CREATINE PHOSPHOKINASE: 331.5 u/L
  CREATININE: 0.2 mg/dL
  GLUCOSE: 171.33 mg/dL
  LACTATE DEHYDROGENASE: 241.67 u/L
  LIPASE: 9.5 u/L
  PHOSPHORUS: 12.25 mg/dL
  POTASSIUM: 6.33 MEQ/L
  SODIUM: 141.28 MEQ/L
  TOTAL BILIRUBIN: 0.15 mg/dL
  TOTAL PROTEIN: 5.98 G/DL
  URIC ACID: 1.63 mg/dL
[2]
  ABSOLUTE BASOPHIL: 0 CELLS/uL
  ABSOLUTE EOSINOPHIL: 148.67 CELLS/uL
  ABSOLUTE LYMPHOCYTE: 16020.5 CELLS/uL
  ABSOLUTE MONOCYTE: 29.17 CELLS/uL
  ABSOLUTE SEGMENTED NEUTROPHIL: 1468.33 CELLS/uL
  BASOPHIL: 0%
  EOSINOPHIL: 1%
  ERYTHROCYTE COUNT: 5.78 x10E6/uL
  HEMATOCRIT: 35.77%
  HEMOGLOBIN: 13.4 G/DL
  LEUKOCYTE COUNT: 17.67 x10E3/uL
  LYMPHOCYTE: 90.5%
  MEAN CORPUSCULAR HEMOGLOBIN: 23.22 pg
  MEAN CORPUSCULAR HEMOGLOBIN CONCENTRATION: 37.47 G/DL
  MEAN CORPUSCULAR VOLUME: 61.92 fL
  MONOCYTE: 0.17%
  NEUTROPHIL: 8.33%
  NUCLEATED RED BLOOD CELLS: 0.17 /100WBC
  PLATELET COUNT: 1255.5 x10E3/uL
  ALANINE AMINOTRANSFERASE: 46.5 u/L
  ALBUMIN: 4.38 G/DL
  ALKALINE PHOSPHATASE: 336 u/L
  ASPARTATE AMINOTRANSFERASE: 76.5 u/L
  BLOOD UREA NITROGEN: 20 mg/dL
  CARBON DIOXIDE: 27.5 mmol/L
  CHLORIDE: 101 MEQ/L
  CHOLESTEROL: 71.33 mg/dL
  CREATINE PHOSPHOKINASE: 231.83 u/L
  CREATININE: 0.37 mg/dL
  GLUCOSE: 168.83 mg/dL
  LACTATE DEHYDROGENASE: 174 u/L
  LIPASE: 8.67 u/L
  PHOSPHORUS: 11.48 mg/dL
  POTASSIUM: 6.82 MEQ/L
  SODIUM: 143.8 MEQ/L
  TOTAL BILIRUBIN: 0.2 mg/dL
  TOTAL PROTEIN: 5.98 G/DL
  URIC ACID: 1.83 mg/dL
[3]
  ABSOLUTE BASOPHIL: 0 CELLS/uL
  ABSOLUTE EOSINOPHIL: 203.67 CELLS/uL
  ABSOLUTE LYMPHOCYTE: 12113.67 CELLS/uL
  ABSOLUTE MONOCYTE: 0 CELLS/uL
  ABSOLUTE SEGMENTED NEUTROPHIL: 916 CELLS/uL
  BASOPHIL: 0%
  EOSINOPHIL: 1.33%
  ERYTHROCYTE COUNT: 5.4 x10E6/uL
  HEMATOCRIT: 33.83%
  HEMOGLOBIN: 12.8 G/DL
  LEUKOCYTE COUNT: 13.23 x10E3/uL
  LYMPHOCYTE: 91.33%
  MEAN CORPUSCULAR HEMOGLOBIN: 23.7 pg
  MEAN CORPUSCULAR HEMOGLOBIN CONCENTRATION: 37.87 G/DL
  MEAN CORPUSCULAR VOLUME: 62.67 fL
  MONOCYTE: 0%
  NEUTROPHIL: 7.33%
  NUCLEATED RED BLOOD CELLS: 0 /100WBC
  PLATELET COUNT: 1197.67 x10E3/uL
  ALANINE AMINOTRANSFERASE: 45.67 u/L
  ALBUMIN: 4.13 G/DL
  ALKALINE PHOSPHATASE: 348.67 u/L
  ASPARTATE AMINOTRANSFERASE: 71.33 u/L
  BLOOD UREA NITROGEN: 13.33 mg/dL
  CARBON DIOXIDE: 28.67 mmol/L
  CHLORIDE: 99.67 MEQ/L
  CHOLESTEROL: 58 mg/dL
  CREATINE PHOSPHOKINASE: 220.33 u/L
  CREATININE: 0.19 mg/dL
  GLUCOSE: 174.67 mg/dL
  LACTATE DEHYDROGENASE: 227.67 u/L
  LIPASE: 8 u/L
  PHOSPHORUS: 12.33 mg/dL
  POTASSIUM: 6.44 MEQ/L
  SODIUM: 143.07 MEQ/L
  TOTAL BILIRUBIN: 0.23 mg/dL
  TOTAL PROTEIN: 5.67 G/DL
  URIC ACID: 1.7 mg/dL
